Where no end group is shown, it is not given here.
Legend:
Mtb = format: cell-based, Mycobacterium tuberculosis
S. aureus (MS) NRS72 = conditions: MS) NRS72, 24 h
H. influenzae TD-4 = conditions: TD-4, 24 h
S. aureus (MR) USA300 = conditions: USA300, 24 h
M. smegmatis Mc^2 155 = conditions: Mc^2 155, 48 h
[1] = test system: M. tuberculosis H37Rv (virulent); conditions: 96 h
[2] = biological target: the molecule itself; test: negative-stain TEM + circular dichroism

**Q.** Which “Combinatorial effect with MAD1 (FIC)” value (Mtb) does the source give for `COc1c(N2C[C@@H]3CCCN[C@@H]3C2)c(F)cc2c(=O)c(C(=O)O)cn(C3CC3)c12` [moxifloxacin] here?
**A.** The value was “synergizes”.

**Q.** With KRWHWWRRHWVVW-NH2 [MAD1] as the molecule, how does the MIC (S. aureus (MS) NRS72) read?
**A.** The MIC was >80 (20) µM.

**Q.** What about the MIC (H. influenzae TD-4) of the same molecule?
**A.** Its MIC is 80 (20) µM.

**Q.** And the MIC (S. aureus (MR) USA300)?
**A.** The MIC was >80 (20) µM.

**Q.** What about the MIC (M. smegmatis Mc^2 155) of the same molecule?
**A.** The MIC was 5(5) µM.

**Q.** And the MIC [1]?
**A.** The MIC was 5 µM.

**Q.** Does KRWHWWRRHWVVW-NH2 [myco-membrane associated disruption 1 (MAD1) peptide] bind [2]?
**A.** Result: binds

Source: publication PMC8131206 (Nature biomedical engineering, 2021)
